Test results taken from PubChem BioAssay (NCI).
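Each compound was tested at five concentrations against cells in 96-well plates for 48 hours. TGI: concentration producing complete growth inhibition.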

Tests used:
Assay in all cases: NCI anticancer screen, dose series, 48 h
BT-549 breast = test system: BT-549 breast
HL-60(TB) leukemia = test system: HL-60(TB) leukemia
PC-3 prostate = test system: PC-3 prostate
UO-31 renal = test system: UO-31 renal
IGROV1 ovarian = test system: IGROV1 ovarian
RXF 393 renal = test system: RXF 393 renal
OVCAR-4 ovarian = test system: OVCAR-4 ovarian
SF-268 CNS = test system: SF-268 CNS
SW-620 colon = test system: SW-620 colon
NCI/ADR-RES ovarian = test system: NCI/ADR-RES ovarian
NCI-H23 lung = test system: NCI-H23 lung
M14 melanoma = test system: M14 melanoma
SN12C renal = test system: SN12C renal
NCI-H226 lung = test system: NCI-H226 lung
HCT-15 colon = test system: HCT-15 colon
OVCAR-5 ovarian = test system: OVCAR-5 ovarian
UACC-257 melanoma = test system: UACC-257 melanoma
MALME-3M melanoma = test system: MALME-3M melanoma
A498 renal = test system: A498 renal

| SMILES | TGI (BT-549 breast) [µM] | TGI (HL-60(TB) leukemia) [µM] | TGI (PC-3 prostate) [µM] | TGI (UO-31 renal) [µM] | TGI (IGROV1 ovarian) [µM] | TGI (RXF 393 renal) [µM] | TGI (OVCAR-4 ovarian) [µM] | TGI (SF-268 CNS) [µM] | TGI (SW-620 colon) [µM] | TGI (NCI/ADR-RES ovarian) [µM] | TGI (NCI-H23 lung) [µM] | TGI (M14 melanoma) [µM] | TGI (SN12C renal) [µM] | TGI (NCI-H226 lung) [µM] | TGI (HCT-15 colon) [µM] | TGI (OVCAR-5 ovarian) [µM] | TGI (UACC-257 melanoma) [µM] | TGI (MALME-3M melanoma) [µM] | TGI (A498 renal) [µM] |
| --- | --- | --- | --- | --- | --- | --- | --- | --- | --- | --- | --- | --- | --- | --- | --- | --- | --- | --- | --- |
| CCOP(=O)(OCC)/C(=C/NC(=S)c1ccncc1)C(=O)OC | > 100 | > 100 | > 100 | > 100 | > 100 | > 100 | > 100 | > 100 | > 100 | > 100 | > 100 | > 100 | > 100 | > 100 | > 100 | > 100 | > 100 |  |  |
| CC(C)(Oc1ccccc1)C(=O)Sc1c(-c2ccccc2)c(=O)n(-c2ccccc2)c(=S)n1-c1ccccc1 |  | 64.7 |  | 82.8 | 47.6 | 63.2 | > 100 | 80.2 | > 100 | > 100 | > 100 | > 100 | > 100 | > 100 | > 100 | > 100 | > 100 | > 100 | > 100 |
| CC(=O)O/C=C1/C[C@H]2[C@@H]3CCC4CC(C(C)=O)CC[C@]4(C)[C@H]3CC[C@]2(C)C1=O (stereo partly specified) | > 100 | 37.2 | > 100 | > 100 | > 100 | > 100 | > 100 | > 100 | > 100 |  | > 100 |  | > 100 | > 100 | > 100 | > 100 | > 100 | > 100 | > 100 |
| COc1cc(/C=C2\N=C(c3ccccc3)N(c3nc4cc(C)c(C)cc4s3)C2=O)ccc1O | > 100 | 43.9 | > 100 | > 100 | > 100 | 82.2 | > 100 | > 100 | > 100 | > 100 |  | > 100 | 78.9 |  | > 100 | > 100 | > 100 |  |  |
| CC(NO)/C(=N/O)c1ccco1 (stereo unspecified) | > 10 | > 10 | > 10 | > 10 |  | > 10 | > 10 | > 10 | > 10 | > 10 | > 10 | > 10 | > 10 | > 10 | > 10 | > 10 | > 10 | > 10 |  |
| NC(N)=NS(=O)(=O)c1ccc(NNc2c3ccccc3nc3c(C(=O)Nc4ccc(S(=O)(=O)N=C(N)N)cc4)cccc23)cc1 | > 100 | 88.8 | > 100 | > 100 | > 100 | > 100 | > 100 | > 100 | > 100 | > 100 | > 100 | > 100 | > 100 | > 100 | > 100 | > 100 | > 100 | 79.1 |  |
| CCC(C(=O)C(=O)C(CC)P1(=O)OC(C)(C)CN1C(C)(C)C)P1(=O)OC(C)(C)CN1C(C)(C)C (stereo unspecified) | > 100 | > 100 | > 100 | > 100 | > 100 | > 100 |  | > 100 | > 100 | > 100 | > 100 | > 100 | > 100 | > 100 | > 100 |  | > 100 |  | > 100 |
| CCN1C(=O)C(=C/C=C/C=C2/N(C)c3ccccc3C2(C)C)C(=O)N(CC)C1=S | 70.9 | > 100 |  | > 100 | > 100 | > 100 | > 100 | > 100 | > 100 | > 100 | > 100 | > 100 | > 100 | > 100 | > 100 | > 100 | > 100 | > 100 | > 100 |
| COc1cccc(/C=C2\CCCc3ccccc3C2=O)c1 | 39.3 | 35 | 38.6 | 29.7 | 46.3 |  | 28.5 | 23 | 35.5 | 53.3 | 32.6 | 25.6 | 33 | 49.3 | 26 | 38 | 33.2 | 43 |  |
| CCCCCCCCCCCCN1[C@H]2CCC[C@H]2C(O)[C@@H]2CCC[C@@H]21 (stereo partly specified) | > 100 | > 100 | > 100 |  | > 100 | > 100 | > 100 | > 100 | > 100 | > 100 | > 100 | > 100 | > 100 | > 100 | > 100 | > 100 | > 100 |  | > 100 |
| COc1cccc(C2c3cc4c(cc3OC(N3CCOCC3)C2C)OCO4)c1OC (stereo unspecified) |  |  | 40.6 | 33.6 | 31.2 |  |  | 92.2 | > 100 | 29.7 | > 100 | 29 | 48.4 |  | > 100 | 43.6 | 48.8 |  |  |
| CC1C/C(=C\c2ccc(OC(=O)C(C)(C)C)cc2)C(=O)/C(=C/c2ccc(OC(=O)C(C)(C)C)cc2)C1 (stereo unspecified) |  | 62.3 | > 100 |  | 63.3 | 70.9 | > 100 | > 100 | > 100 | > 100 | > 100 | > 100 | > 100 | 71 | > 100 | > 100 | > 100 | > 100 | > 100 |
| O=C(CC(C(=O)c1cccs1)c1cccs1)c1ccsc1 (stereo unspecified) |  | 95 | > 100 | > 100 | > 100 |  | > 100 | > 100 | > 100 | > 100 | > 100 | > 100 | > 100 | > 100 | > 100 | > 100 | > 100 | > 100 | > 100 |
| Cn1c(=O)n2n(c1=O)C(S(=O)(=O)c1ccccc1)C2 (stereo unspecified) | > 100 |  | > 100 | > 100 | > 100 | > 100 | > 100 | > 100 | > 100 | > 100 | > 100 | > 100 | > 100 |  | > 100 | > 100 | > 100 | > 100 |  |
| COC(=O)c1ccccc1C1CN=NC12Cc1ccccc1C2=O (stereo unspecified) | > 100 | > 100 | > 100 | > 100 | > 100 | > 100 | > 100 | > 100 | > 100 | > 100 | > 100 | > 100 | > 100 | > 100 | > 100 | > 100 | > 100 | > 100 |  |
| C1CCCCC2(CCCCCCCCC3(CCC1)OCCO3)OCCO2 |  | > 100 | > 100 | 3.64 | > 100 | > 100 | > 100 | > 100 | > 100 | > 100 | > 100 | > 100 | > 100 | > 100 | > 100 | > 100 | > 100 | > 100 | > 100 |
| O=C1CCCCCCCCCCC1CCCCCBr (stereo unspecified) |  |  | > 100 | 65.9 | 56.2 | 43.8 | 67.2 | > 100 | > 100 | 64.3 | 74.8 | 83.6 | 43.1 | 40 | 56.8 | 67.1 | 58.5 | 38.4 | 28.2 |
| O=C(O)C1CCCCC1C(=O)Nn1cnnc1 (stereo unspecified) | > 100 |  | > 100 | > 100 | > 100 | > 100 | > 100 | > 100 | > 100 | > 100 | > 100 | > 100 | > 100 |  | > 100 | > 100 | > 100 |  |  |
| O=S(CC1(O)CCCCC1)c1ccccc1 (stereo unspecified) | > 100 | > 100 | > 100 | > 100 | > 100 | > 100 | > 100 | > 100 | > 100 | > 100 | > 100 | > 100 | > 100 | > 100 | > 100 | > 100 | > 100 | > 100 |  |
| Nc1c2ccccc2nc2ccc3c(=O)cc(-c4ccccc4)oc3c12 | 59.7 | 3.07 | 2.7 | 2.86 |  | 2.91 | 1.1 |  | 0.34 |  | 3.52 | 2.67 |  | 2.56 | 4.3 | 2.85 | 3.39 | 3.23 |  |
| COc1ccc(P2(=S)Oc3ccccc3-c3ccccc3O2)cc1 | > 100 |  |  |  | > 100 |  | > 100 | > 100 | > 100 | > 100 | > 100 | > 100 |  | > 100 | > 100 | > 100 | > 100 | > 100 | 4.01 |
| CCN(CC)c1ccc2cc(C(N)=S)c(=N)oc2c1 | > 100 | > 100 | > 100 | > 100 | > 100 | > 100 | > 100 | > 100 | > 100 | > 100 |  | > 100 | > 100 | > 100 | > 100 | > 100 | > 100 | > 100 |  |
| CC(=O)[C@@H]1C/C(=C\OCc2ccccc2)O[C@H]1C | > 100 |  |  | > 100 | > 100 | > 100 | > 100 | > 100 | > 100 | > 100 | > 100 | > 100 | > 100 | > 100 | > 100 | > 100 | > 100 | > 100 | > 100 |
| CC1=NN(c2cccc(Cl)c2)C2(SCC(=O)N2c2nc3ccccc3s2)/C1=C\c1ccc(N(C)C)cc1 (stereo unspecified) |  | > 100 | > 100 | > 100 | > 100 | 44.8 | > 100 | > 100 | > 100 | > 100 | > 100 | > 100 |  | > 100 | > 100 | > 100 | > 100 |  | 87.9 |
| N#CC(C#N)=C/C=C(\Sc1c(Cl)c(Cl)nc(Cl)c1Cl)c1ccc(Cl)cc1 |  | > 100 | > 100 | > 100 | 53.6 | 40 | > 100 | 54.1 | 25.9 | 36.1 | 35.9 | 38.9 | 42.4 | 67.9 | 30.1 | 44.6 | 37.2 | 46.6 |  |
| CCOC(=O)CCC(NC(=O)c1ccc(Oc2nc3ccccc3nc2-c2ccccc2)cc1)C(=O)OCC (stereo unspecified) |  | > 100 | > 100 | > 100 | > 100 | > 76.2 | 65.6 | 28.2 | > 100 | 27.7 | > 61.3 | > 100 | > 100 | 33 | > 100 | > 100 | > 100 | 33 | > 100 |
| Oc1c(Cl)c(Cl)c(O)c(CCNc2ccc3ncccc3c2)c1Cl |  | > 100 | > 100 | 31.2 | 21 | 37.7 | > 100 | 18.8 | 95.6 | 33.9 | 25.9 | 27.1 | 28.9 |  | 30 | 40.4 | 43.6 | 35.3 |  |
| O=C1/C(=C/c2ccc(OC(=O)c3ccccc3)cc2)CCC/C1=C\c1ccc(OC(=O)c2ccccc2)cc1 | > 100 | > 100 | > 100 | > 100 | > 100 |  | > 100 | > 100 | > 100 | > 100 | > 100 | > 100 | > 100 |  | > 100 | > 100 | > 100 |  |  |
